# Measurements as given in patent US5442077A, “Benzo[B]Furancarboxamide derivatives, process for the preparation of same and use thereof for improving hypermotility” (Sanwa Kagaku Kenkyusho Co., Ltd., priority 1993, dated 1995).
# Where a name gives a salt, the structure may show the parent alone.
# Tests used:
# digestive tract = experiment: Action on Hypermotility of Digestive Tract (acceleration of gastric emptying, phenol red); format: in vivo; conditions: Rattus norvegicus, oral, rats fasted for 24 hours, phenol red 30 min after administration
# Protocol: The compounds obtained by Examples 1, 2 and 5 as well as exemplar known compounds (Metocloplamide and Cysapride) were selected as Test Compounds, and an action of the compounds for accelerating gastric emptying was checked in accordance with the method described by Yokochi et al [" (which can be translated as --Bulletin of Pharmacological Society of Japan--)", Vol. 92, page 297 (1988 )].
# Namely, the test compound was orally administered in an amount of 0.3, 1.0, 3.0 or 10 mg/kg to rats fasted for 24 hours, and after 30 minutes from the administration, a coloring matter in a constant amount (phenol red, 100 μg) was also orally administered.
# Rate of gastric emptying=100-(B/A)×100
# A: Dosing amount of coloring matter, and
# B: Remaining amount of coloring matter.
# Rate of acceleration=(C-D)×100
# C: Rate of gastric emptying in Test Group, and
# D: Rate of gastric emptying in Control Group given no Test Compound.
# dopamine D2 receptor = experiment: Anti-Dopamine Action (general symptoms including catalepsy and blepharoptosis); format: in vivo, rat
# Protocol: The compound was orally administered to rats in amount of 100, 300 or 1000 mg/kg to observe for 2 days general symptoms including catalepsy and blepharoptosis due to antagonistic action of the compound to dopamine D2 receptor.
# 5-HT4 receptor = target: T1, 5-HT4 receptor (Rattus norvegicus, UniProt Q62758); experiment: Agonisting Action to 5-HT4 Receptor (relaxation of carbachol-treated oesophageal mucous membrane muscle sample); format: cell-based; conditions: negative logarithm of concentration causing 50% relaxation, rat esophagus
# T1 construct: muscular sample of mucous membrane in esophgus exentrated from a rat; from tissue; host or cells: rat oesophagus, muscularis mucosae
# T1 sequence (Q62758 whole entry): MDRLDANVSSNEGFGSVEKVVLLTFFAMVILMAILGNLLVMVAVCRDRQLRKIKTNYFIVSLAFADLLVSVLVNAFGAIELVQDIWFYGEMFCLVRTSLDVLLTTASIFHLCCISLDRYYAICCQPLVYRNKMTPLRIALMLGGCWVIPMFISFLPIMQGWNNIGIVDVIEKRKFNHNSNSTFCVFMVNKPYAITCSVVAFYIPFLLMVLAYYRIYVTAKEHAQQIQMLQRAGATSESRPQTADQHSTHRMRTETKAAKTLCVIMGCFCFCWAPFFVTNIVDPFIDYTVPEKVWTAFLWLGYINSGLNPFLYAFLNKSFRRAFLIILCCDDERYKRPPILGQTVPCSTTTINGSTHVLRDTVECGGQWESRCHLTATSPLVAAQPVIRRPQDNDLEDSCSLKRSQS
# [1] = oral, rats, observed for 2 days
SMILES,EC50 (5-HT4 receptor) [nM],ED50 (digestive tract) [mg/kg],"Influence on central nervous system, 1000 mg/kg (dopamine D2 receptor; [1])",also measured
"CC1Cc2c(N)c(Cl)cc(C(=O)NCCC34CCCN3CCC4)c2O1 (centres unmarked) [Example 2, 4-Amino-N-[2-(1-azabicyclo[3.3.0]octan-5-yl)ethyl]-5-chloro-2-methyl-2,3-dihydrobenzo[b]furan-7-carboxamide]",,1.97,-,"Influence on central nervous system, 100 mg/kg (dopamine D2 receptor; [1]): -; Influence on central nervous system, 300 mg/kg (dopamine D2 receptor; oral, rats, 300 mg/kg, observed for 2 days): -"
"CC1Cc2c(N)c(Cl)cc(C(=O)NCCC34CCCN3CCC4)c2O1 (single isomer, unassigned; (+)) [Example 4, (+)-4-Amino-N-[2-(1-azabicyclo[3.3.0]octan-5-yl)ethyl]-5-chloro-2-methyl-2,3-dihydrobenzo[b]furan-7-carboxamide . 1/2 fumarate]",50.1,,,
"COc1cc(N)c(Cl)cc1C(=O)NC1CCN(CCCOc2ccc(F)cc2)CC1OC (centres unmarked) [Cisapride, reference compound]",39.8,6.37,++,
"CCN(CC)CCNC(=O)c1cc(Cl)c(N)cc1OC [Metoclopramide, 4-amino-5-chloro-N-[(2-diethylamino)ethyl]-2-methoxybenzamide, reference compound]",,16.3,,"Influence on central nervous system, 100 mg/kg (dopamine D2 receptor; rat, in vivo, po): ++"
"CC1Cc2c(N)ccc(C(=O)NCCC34CCCN3CCC4)c2O1 (centres unmarked) [Example 10, 4-Amino-N-[2-(1-azabicyclo[3.3.0]octan-5-yl)ethyl]-2-methyl-2,3-dihydrobenzo[b]furan-7-carboxamide]",1000,,,

# Continued by falling EC50 (5-HT4 receptor), values first:
EC50 (5-HT4 receptor) [nM],SMILES,ED50 (digestive tract) [mg/kg],"Influence on central nervous system, 1000 mg/kg (dopamine D2 receptor; [1])",also measured
316,"CC1(C)Cc2c(N)c(Cl)cc(C(=O)NCCC34CCCN3CCC4)c2O1 [Example 5, 4-Amino-N-[2-(1-azabicyclo[3.3.0]octan-5-yl)ethyl]-5-chloro-2,2-dimethyl-2,3-dihydrobenzo[b]furan-7-carboxamide]",1.5,-,
316,"Nc1c(Cl)cc(C(=O)NCCC23CCCN2CCC3)c2c1CCO2 [Example 1, 4-Amino-N-[2-(1-azabicyclo[3.3.0]octan-5-yl)ethyl]-5-chloro-2,3-dihydrobenzo[b]furan-7-carboxamide]",2.15,-,
316,"CC(=O)Nc1c(Cl)cc(C(=O)NCCC23CCCN2CCC3)c2c1CC(C)O2 (centres unmarked) [Example 8, 4-Acetylamino-N-[2-(1-azabicyclo[3.3.0]octan-5-yl)ethyl]-5-chloro-2-methyl-2,3-dihydrobenzo[b]furan-7-carboxamide]",,,
100,"CC1Cc2cc(Cl)cc(C(=O)NCCC34CCCN3CCC4)c2O1 (centres unmarked) [Example 9, N-[2-(1-Azabicyclo[3.3.0]octan-5-yl)ethyl]-5-chloro-2-methyl-2,3-dihydrobenzo[b]furan-7-carboxamide]",,,
39.8,"CC1Cc2c(N)c(Cl)cc(C(=O)NCCC34CCCN3CCC4)c2O1 (centres unmarked) [2 (*), 4-Amino-N-[2-(1-azabicyclo[3.3.0]octan-5-yl)ethyl]-5-chloro-2-methyl-2,3-dihydrobenzo[b]furan-7-carboxamide]",,,
20,"CC1Cc2c(N)c(Cl)cc(C(=O)NCCC34CCCN3CCC4)c2O1 (single isomer, unassigned; (-)) [Example 3, (-)-4-Amino-N-[2-(1-azabicyclo[3.3.0]octan-5-yl)ethyl]-5-chloro-2-methyl-2,3-dihydrobenzo[b]furan-7-carboxamide . 1/2 fumarate]",,,
20,"CCC1Cc2c(N)c(Cl)cc(C(=O)NCCC34CCCN3CCC4)c2O1 (centres unmarked) [Example 7, 4-Amino-N-[2-(1-azabicyclo[3.3.0]octan-5-yl)ethyl]-5-chloro-2-ethyl-2,3-dihydrobenzo[b]furan-7-carboxamide]",,,
12.6,"CC1Oc2c(C(=O)NCCC34CCCN3CCC4)cc(Cl)c(N)c2C1C (centres unmarked) [Example 6, 4-Amino-N-[2-(1-azabicyclo[3.3.0]octan-5-yl)ethyl]-5-chloro-2,3-dimethyl-2,3-dihydrobenzo[b]furan-7-carboxamide]",,,
